Laboratory results: patent publication US20130158111A1, “Compositions and Methods for Depleting Mutant p53” (Georgetown University, priority 2011, published 2013)

Legend:
mda-mb-231 (R280K) cells = experiment: Cell proliferation, mda-mb-231; format: cell-based, Human
Method: Next, the effect of PEITC exposure on tumor growth of the tumor cell lines expressing mutant or the WT p53 protein was examined. […] This hypersensitivity to PEITC being mediated through mutant p53 was next examined. The effect of PEITC on mda-mb-231 cells depleted of mutant p53 by >90% was compared to non-specific (NS) siRNA transfected cells as a control (FIG. 9B). […] Further the effect of PEITC treatment on the level of mutant p53 protein at lower doses was analyzed by western blot analysis (FIG. 9D).

[1] = test system: LNCap (wild-type p53) xenograft tumors; experiment: Xenograft model, LNCap tumors, PEITC diet; format: in vivo, BALB/C nu/nu transgenic mice
Method: Briefly, 30 BALB/C nu/nu transgenic mice (purchased from Charles River) were randomized into two groups, and fed with powder diet AlN93 (purchased from Research Diets, Inc.) with or without addition of 5 μM PEITC compound (purchased from Sigma-Aldrich). After two weeks of feeding, two xenograft tumors each carrying […] in a volume of 100 μL were established by injection into both flanks of a mouse. Mice were continuously fed with diets with or without PEITC for additional 8 weeks before sacrifice. Diet intake and tumor volume were measured twice every week. Tumors were harvested at the end of bioassay for immunohistochemistry and immunoblot studies. […] Immunohistochemistry assays were carried out to examine the apoptotic markers, such as TUNEL, and anti-proliferation marker Ki67 in tumors from the PEITC-treated vs. untreated mice. This study provides the first in vivo evidence that mutant p53 can be depleted in tumors of mice fed PEITC-containing diet and its depletion seems to correlate with growth inhibition in the mutant p53 tumors.

mutant p53 mRNA = experiment: Reverse transcription PCR of p53 mRNA in H596 cells; format: cell-based, Human; details: H596, 15 μM PEITC; 2, 4, and 6 h
Method: Total RNA was extracted from the cells using the RNeasy kit (Qiagen). Reverse transcription PCR was performed using SuperScript One-Step RT-PCR kit (Invitrogen) according to the manufacturer's instructions. Primers for p53 were 5′-[…]-3′ (sense) and 3′-[…]-5′ (antisense). Primers for β-actin were 5′-[…]-3′ (sense) and 3′-[…]-5′ (antisense). β-Actin was used as an internal standard for RNA normalization.

[2] = target: T1, mutant p53 protein in H596 (G245C) non-small-cell lung cancer cells (Homo sapiens, UniProt P04637, G245C); experiment: Immunoblot of mutant p53 protein in H596 cells; format: cell-based
T1 construct: host or cells: H596
Text: Human H596, A549, HCT116, MDA-MB-231, MDA-MB-468, MCF-7, DU145, MCF-10A, SW480, and SCC-4 cells were obtained from ATCC (Manassas, Va.). H1299-175H cells were kindly provided by Dr. Maria Laura Avantaggiati (Georgetown University). Cells were maintained in DMEM or RPMI-1640 medium supplemented with 10% FBS (Hyclone). […] 2,2-Diphenylethyl ITC, 4-phenoxybenzyl ITC, 4-methoxybenzyl ITC, 4-chlorobenzyl ITC, Dα-methylbenzyl ITC, trityl ITC, and 3-phenylpropyl ITC were purchased from Trans World Chemicals (Rockville, Md.). Erucin and 4-phenylbutyl ITC were from LKT Laboratories, Inc. (St. Paul, Minn.). […] The p53 DO-1 and β-actin antibodies were purchased from Santa Cruz Biotechnology (Santa Cruz, Calif.), horseradish peroxidase-labeled goat antimouse secondary antibodies were purchased from GE-Healthcare (Pittsburgh, Pa.), and Bio-Rad Protein Assay was from Bio-Rad (Hercules, Calif.).
Whole cell lysates were prepared in lysis buffer (20 mM HEPES, pH 7.4, 2 mM EGTA, 50 mM β-glycerol phosphate, 1% Triton X-100, 10% glycerol, 1 mM DTT, 1 mM PMSF, […], 1 mM Na3-VO4, and 5 mM NaF). For immunoblot analysis, equal amounts of protein were resolved on 4-12% NuPAGE BisTris gels (Invitrogen) and transferred to PVDF membranes (Millipore). The membranes were blocked with 5% milk in TBST and were then probed with p53 (DO-1) or β-actin antibody. Proteins were detected using enhanced chemiluminescence (ECL) reagents (GE Healthcare).

[3] = test system: A549, H596, MCF-7, MDA-MB-231, MDA-MB-468, HCT116 and SW480 cells; experiment: Caspase-3 colorimetric activity assay (apoptosis), mutant vs wild-type p53 cells; format: cell-based, Human; details: PEITC 24 h; lung, breast and colon cell line sets
Method: Caspase-3 activity was measured by detection of the cleavage of a colorimetric caspase-3 substrate, N-acetyl-Asp-Glu-Val-Asp (DEVD)-p-nitroaniline, using an assay kit (R&D Systems, Inc., Minneapolis, Minn.). The assay was performed according to the instructions of the manufacturer. In brief, cells were treated with drugs for 24 h. The cells were collected and lysed in ice-cold lysis buffer provided by the manufacturer. The same amount of protein extracts (100-200 μg) were incubated in a reaction buffer containing N-acetyl-DEVD-p-nitroaniline at 37 gC for 2-4 h. The levels of the resulting proteolytic fragment p-nitroanilide were measured as optical density at 405 nm with a plate reader. The data represent the mean±SD of three independent experiments.
The role of p53 in the induction of apoptosis by ITCs is not well established and likely to be cell-specific. […] To examine this possibility, we assessed the cytotoxicity induced by PEITC in cancer cells containing either wild-type or mutant p53. Three sets of cell lines from lung, breast, and colon were used: A549 (wild-type p53) and H596 (mutant p53) lung cancer cells, MCF-7 (wild-type p53) and MDA-MB-231 and MDA-MB-468 (mutant p53) breast cancer cells, and HCT116 (wild-type p53) and SW480 (mutant p53) colon cancer cells. After treating with PEITC for 24 h, apoptosis was determined by caspase-3 activity assay.

S=C=NCCc1ccccc1 [PEITC, phenethyl isothiocyanate]
inhibition at 1 µM (mda-mb-231 (R280K) cells; Homo sapiens, mda-mb-231 (R280K), 1 μM PEITC): 55% | sensitivity to cell growth inhibition (mda-mb-231 (R280K) cells; control (NS) siRNA transfected mda-mb-231 cells): highly sensitive | sensitivity to cell growth inhibition (mda-mb-231 (R280K) cells; mda-mb-231 cells depleted of mutant p53 by >90% (siRNA)): significant reduction in the sensitivity | p53 level in tumors detected by immunoblot ([1]; LNCap tumors, PEITC diet): not in LNCap tumors | tumor volume ([1]; LNCap xenograft, diet with 5 μM PEITC vs diet without PEITC, 8 weeks): significantly decreased | mutant p53 mRNA levels (mutant p53 mRNA): remained unchanged | mutant p53 protein level ([2]; H596 (G245C), 15 μM PEITC, immunoblot): rapid depletion | earliest time at which depletion of mutant p53 occurred ([2]; H596, 15 μM PEITC): 2 h | time at which depletion of mutant p53 peaked ([2]; H596, 15 μM PEITC, sustained during 24 h treatment): 4 h | depletion of mutant p53 at equimolar concentrations ([2]; H596, 20 μM ITCs, 24 h, compared with DMSO control): approximately the same extent | sensitivity of mutant p53 cancer cells vs wild-type cells to PEITC-induced apoptosis (caspase-3 activity) [3]: significantly more sensitive
